According to patent publication US20250249001A1, “METHODS OF TREATING SUBSTANCE USE DISORDER WITH 4-(3-CYANOPHENYL)-6-PYRIDINYLPYRIMIDINE MGLU5 NEGATIVE ALLOSTERIC MODULATORS” (Tempero Bio, Inc., priority 2022, published 2025):
Where two headings read alike, the source gives them in different places.

Tests used:
[1] = test system: voluntary home-cage alcohol drinking by Wistar rats; assay: Home-cage alcohol drinking, repeated treatment (A-B-A design); format: in vivo
Experimental: Home-cage alcohol drinking method. Oral alcohol and water intake were examined using a two-bottle choice protocol, which is standard in the field and commonly used in our laboratory. Male Wistar rats (n=12) were first adapted to drinking from a 50 ml conical tube fitted with a standard stainless-steel ball bearing sipper tube that limits spillage. Then, two bottles were place on the cage daily. One bottle contained an alcohol solution and the other contained water. Bottles containing fresh solutions were weighed daily before and after a 24 hr access period. After drug treatment, bottles were weighed after 1 hr and 24 hrs of access. Each week, rats had 4-5 days of sweetened alcohol and water available and the remaining days only water.
Briefly, rats were first exposed to alcohol (10% v/v)+sucrose (5% w/v). versus water in the two bottles. Then, over a period of 6-weeks, the concentrations of alcohol and sucrose were gradually adjusted to alcohol (8% v/v)+sucrose (2% w/v) to achieve intake of pharmacologically relevant doses of alcohol. Rats were maintained at this concentration for the duration of the experiment for both acute (3.1.a) and chronic (3.1.b) home-cage drinking studies. Use of sweetened alcohol solutions in preclinical research provides face validity to the binge-intoxication stage of alcohol addiction in humans where sweeteners are commonly added to alcohol.
Repeated treatment with Compound 1. To evaluate effects of repeated treatment with Compound 1 on home-cage alcohol drinking, baseline intake of sweetened alcohol and water, and habituation to i.p. injections was conducted as described above in a separate group of male Wistar rats (n=12). During habituation to i.p. injections, rats were moved to a 7 day per week alcohol access schedule to allow for chronic daily treatment. Rats were then administered vehicle (4 consecutive days), Compound 1 (3 mg/kg, 7 consecutive days), then vehicle (4 consecutive days) according to an A-B-A experimental design for a total of 15 days. Access to alcohol was provided 1-hr after vehicle or Compound 1 injection. Alcohol and water intake were measured as described above after 1-hr and 24-hrs of access.

[2] = test system: cocaine self-administration in rats
[3] = test system: cocaine reinstatement in rats; assay: Yohimbine-induced reinstatement of cocaine self-administration (Stage II); format: in vivo, Sprague-Dawley rats; details: 3 mg/kg co-administered with yohimbine 2 mg/kg; Ps<0.001
[4] = test system: oxycodone reinstatement in rats; assay: Yohimbine-induced reinstatement of oxycodone self-administration; format: in vivo, Sprague-Dawley rats; details: 3 mg/kg thirty minutes before yohimbine 2 mg/kg; Ps<0.001
Experimental: Evaluation of Compound 1 on Oxycodone Reinstatement. After completion of testing rats were re-trained with oxycodone for one week to ensure stable baseline. Rats then underwent a 6-day extinction where only saline infusion occurred when active lever was pressed. Meanwhile, the rats were divided into 3 groups: All rats received one injection of alpha-2 adrenergic antagonist yohimbine (2 mg/kg) with 0 min pretreatment (rats were placed into the training box immediately). Thirty minutes before yohimbine treatment, one group of rats received saline, another group received MTEP 3 mg/kg injection, and the 3rd group received Compound 1 (3 mg/kg). Yohimbine-induced reinstatement was re-tested two more times in the same rats 3 days and 6 days after the first test, under continuous extinction procedure.
Statistical Analysis. Prism 9.40 software package Version 9 was used for statistical analysis and graphing. The number of active lever responses were recorded during each session and compared between treatment groups. A one-way mixed-effects model (REML) of ANOVA followed by Dunnett's post hoc tests were used to analyze efficacy of Compound 1 and MTEP on oxycodone self-administration in stages I (The repeated measure ANOVA was not totally applicable due to a few outlier data points, which are removed), and one-way mixed-effects model (REML) of ANOVA followed by Tukey's post hoc tests were used in Stage II. An effect was considered significant if P<0.05. Data were represented as the mean and standard error to the mean (s.e.m). Statistical outliers which exceeded mean +/− (2× standard deviation) of the group were removed from the analysis.

[5] = test system: cocaine reinstatement in rats; assay: Yohimbine-induced reinstatement of cocaine self-administration (Stage II); format: in vivo, Sprague-Dawley rats; details: for cocaine reinstatement, Mean Diff., Last Day of Cocaine Retraining vs treatment - Yohimbine / cocaine reinstatement, Mean Diff., Last Day of Extinction vs. treatment - Yohimbine / cocaine reinstatement, Mean Diff., Saline - Yohimbine 2 mg/kg vs. treatment - Yohimbine: 3 mg/kg, thirty min before yohimbine 2 mg/kg
Experimental: After completion of Stage I, the rats were re-trained with cocaine for one week to ensure stable baseline. And then the rats underwent a 6-day extinction training procedure in which only saline infusion occurred when active lever was pressed. Meanwhile, the rats were divided into 3 roughly even groups for pharmacological stressor-induced reinstatement—All rats received one injection of alpha-2 adrenergic antagonist yohimbine (2 mg/kg) and then placed into the training box immediately). Thirty min before yohimbine treatment, one group of rats received saline, another group received MTEP 3 mg/kg injection, and the 3rd group received Compound 1 at 3 mg/kg.
Yohimbine-induced reinstatement was re-tested two more times in the same rats 3 days and 6 days after the first test, under continuous extinction procedure (There were 2 more days of extinction training between the 1st and 2nd reinstatement test, and between the 2nd and 3rd reinstatement test). Using the 3×3 within subject design, each given animal goes through all three treatments (saline, MTEP and Compound 1) across the three rounds of test.
A one-way mixed-effects model (REML) of ANOVA followed by Dunnett's post hoc tests were used to analyze efficacy of Compound 1 and MTEP on cocaine self-administration in stages I (The repeated measure ANOVA was not totally applicable due to a few outlier data points, which are removed), and one-way mixed-effects model (REML) of ANOVA followed by Tukey's post hoc tests were used in Stage II. An effect was considered significant if P<0.05. Data were represented as the mean and standard error to the mean (s.e.m).
Statistical outliers which exceeded mean +/− (2× standard deviation) of the group were removed from the analysis. Also, for reinstatement, the extinction time was shortened (from 9 days plus extension as option to 6 days). In the present study, 3 rounds of reinstatement tests were performed, and we wished to maintain the reinstatement power, thus we cut extinction duration. Accordingly, we loosened the extinction criterion from 6 or less infusions to 9 or less infusions during the last extinction session. With this criterion, 17 out of 21 rats were eligible in drug test in Stage II.

[6] = 3 mg/kg IP, FR5, 1 hour session

| Compound | H2O intake, 1-hr access, averaged across the 3 experimental phases ([1]; 3 mg/kg i.p. daily for 7 days) | H2O intake, 24-hrs access, averaged across the experimental phases ([1]; 3 mg/kg i.p. daily for 7 days) | alcohol intake, 24-hr access, averaged over each treatment condition ([1]; 3 mg/kg i.p. daily for 7 days) | average alcohol intake over the 7-day treatment phase, 1-hr access, vs Veh-1 and Veh-2 ([1]; 3 mg/kg i.p. daily for 7 days) | H2O intake, 1-hr access, individual treatment days ([1]; 3 mg/kg i.p. daily, days 5-11) | H2O intake, 24-hrs access, individual treatment days ([1]; 3 mg/kg i.p. daily, days 5-11) | alcohol intake, 1-hr access, individual treatment days vs day 4 vehicle ([1]; 3 mg/kg i.p. daily, days 5-11) | alcohol intake, 24-hr access, individual treatment days vs day 4 vehicle ([1]; 3 mg/kg i.p. daily, days 5-11) | cocaine self-administration, Mean Diff., Saline vs. treatment ([2]; 1 mg/kg IP 30 min before testing, FR5) | cocaine self-administration, Mean Diff., Saline vs. treatment [2, 6] | cocaine self-administration, Mean Diff., Saline vs. treatment ([2]; 10 mg/kg IP 30 min before testing, FR5) | cocaine self-administration vs saline treatment ([2]; all three doses, 1, 3 and 10 mg/kg IP) | yohimbine-induced cocaine reinstatement [3] | yohimbine-induced oxycodone reinstatement vs Vehicle-Yohimbine group [4] | cocaine reinstatement, Mean Diff., Last Day of Cocaine Retraining vs treatment - Yohimbine [5] | cocaine reinstatement, Mean Diff., Last Day of Extinction vs. treatment - Yohimbine [5] | cocaine reinstatement, Mean Diff., Saline - Yohimbine 2 mg/kg vs. treatment - Yohimbine [5] | cocaine reinstatement, Mean Diff., MTEP 3 mg/kg - Yohimbine vs. Compound 1 (3 mg/kg) - Yohimbine ([5]; both 3 mg/kg before yohimbine 2 mg/kg) | cocaine infusion vs saline treatment ([2]; 3 mg/kg IP) |
| --- | --- | --- | --- | --- | --- | --- | --- | --- | --- | --- | --- | --- | --- | --- | --- | --- | --- | --- | --- |
| N#Cc1cc(Cl)cc(-c2cc(-c3ccc(F)cn3)ncn2)c1 [Compound 1, 3-chloro-5-[6-(5-fluoropyridin-2-yl)pyrimidin-4-yl]benzonitrile] | decreased water intake | reduction in H2O intake as compared to the first vehicle condition only | no effect | significantly decreased alcohol intake | failed to identify a significant change at a particular treatment day | significant reductions in H2O intake at days 7 and 11 | reduced alcohol intake only on day 5 | reduced alcohol intake only on day 5 | 15.73 | 24.3 | 27.07 | significantly attenuate cocaine self-administration | almost entirely prevented cocaine reinstatement | attenuated yohimbine-induced oxycodone reinstatement | 26.57 | 5.749 | 20.28 | −0.1333 | – |
| Cc1nc(C#Cc2cccnc2)cs1 [MTEP, 3-((2-Methyl-4-thiazolyl)ethynyl)pyridine] | – | – | – | – | – | – | – | – | – | 19.93 | – | – | almost entirely prevented cocaine reinstatement | attenuated yohimbine-induced oxycodone reinstatement | 26.71 | 5.882 | 20.41 | – | significantly decreased cocaine infusion |
